Experimental findings from patent US12077503B2, “Substituted cyclic amides and their use as herbicides” (FMC CORPORATION, priority 2015, dated 2024) are described below.

Assay type in all cases: in vivo
Assay [1] has as its system giant foxtail (Setaria faberii). Put plainly: Test A postemergence. The note with it: Setaria faberi, post-emergence, 240 h, 125 g ai/ha. The gist of the method:
(§1)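 In a loam soil and sand blend, planted seeds got a preemergence directed soil spray, and young plants at the one- to two-leaf stage, 2–10 cm high, got a postemergence application; ~10 d greenhouse hold; injury rated visually, 0 = none, 100 = complete control.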

For assay [2], the system named is Galium (catchweed bedstraw, Galium aparine). Put plainly: Test A postemergence. Particulars: Galium, post-emergence, 240 h, 125 g ai/ha. An outline of the steps: as §1
For assay [3], the system named is Kochia (Kochia scoparia). Put plainly: Test A postemergence. The note with it: Bassia scoparia, post-emergence, 240 h, 125 g ai/ha. The gist of the method:
as §1

Assay [4] concerns ragweed (common ragweed, Ambrosia elatior). The assay can be described thus: Test A postemergence. Particulars: Ambrosia artemisiifolia, post-emergence, 240 h, 125 g ai/ha. The gist of the method: as §1
In assay [5] the test system is ryegrass, Italian (Italian ryegrass, Lolium multiflorum). Put plainly: Test A postemergence. Particulars: Lolium multiflorum, post-emergence, 240 h, 125 g ai/ha. The gist of the method: as §1
Assay [6] concerns pigweed (Amaranthus retroflexus). Put plainly: Test A postemergence. Particulars: Amaranthus retroflexus, post-emergence, 240 h, 125 g ai/ha. The gist of the method: as §1
Another assay concerns corn (Zea mays). Put plainly: Test A postemergence. The note with it: Zea mays, post-emergence, 240 h, 125 g ai/ha; for plant injury at 125 g/ha: postemergence, visual injury rating after approximately 10 d, read-out: Corn plant response rating (0 to 100 scale, 0 no effect, 100 complete control). The gist of the method:
as §1

In assay [7] the test system is barnyardgrass (Echinochloa crus-galli). The assay can be described thus: Test A postemergence. The note with it: Echinochloa crus-galli, post-emergence, 240 h, 125 g ai/ha. An outline of the steps:
as §1

For assay [8], the system named is wheat (Triticum aestivum). Put plainly: Test A postemergence. Particulars: Triticum aestivum, post-emergence, 240 h, 125 g ai/ha. The gist of the method: as §1
Assay [9] relates to giant foxtail (Setaria faberii). Put plainly: Test A preemergence. The note with it: Setaria faberi, pre-emergence, 240 h; for pest or weed control at 125 g/ha: 125 g ai/ha, preemergence, 0 to 100 scale where 0 is no effect and 100 is complete control, read-out: Foxtail, Giant plant response rating; for pest or weed control at 500 g/ha: 500 g ai/ha, Preemergence, visual injury vs untreated controls after approximately 10 d, read-out: Foxtail, Giant plant response rating (0 to 100 scale where 0 is no effect and 100 is complete control). The gist of the method:
as §1

For assay [10], the system named is Kochia (Kochia scoparia). Put plainly: Test A preemergence. Particulars: Bassia scoparia, pre-emergence, 240 h; for pest or weed control at 125 g/ha: 125 g ai/ha, preemergence, 0 to 100 scale where 0 is no effect and 100 is complete control, read-out: Kochia plant response rating; for pest or weed control at 500 g/ha: 500 g ai/ha, Preemergence, visual injury vs untreated controls after approximately 10 d, read-out: Kochia plant response rating (0 to 100 scale where 0 is no effect and 100 is complete control). The gist of the method: as §1

In assay [11] the test system is ragweed (common ragweed, Ambrosia elatior). Put plainly: Test A preemergence. Particulars: Ambrosia artemisiifolia, pre-emergence, 240 h; for pest or weed control at 125 g/ha: 125 g ai/ha, preemergence, 0 to 100 scale where 0 is no effect and 100 is complete control, read-out: Ragweed plant response rating; for pest or weed control at 500 g/ha: 500 g ai/ha, Preemergence, visual injury vs untreated controls after approximately 10 d, read-out: Ragweed plant response rating (0 to 100 scale where 0 is no effect and 100 is complete control). An outline of the steps: as §1

For assay [12], the system named is ryegrass, Italian (Italian ryegrass, Lolium multiflorum). Put plainly: Test A preemergence. Particulars: Lolium multiflorum, pre-emergence, 240 h; for pest or weed control at 125 g/ha: 125 g ai/ha, preemergence, 0 to 100 scale where 0 is no effect and 100 is complete control, read-out: Ryegrass, Italian plant response rating; for pest or weed control at 500 g/ha: 500 g ai/ha, Preemergence, visual injury vs untreated controls after approximately 10 d, read-out: Ryegrass, Italian plant response rating (0 to 100 scale where 0 is no effect and 100 is complete control). The gist of the method:
as §1

Assay [13] has as its system pigweed (Amaranthus retroflexus). Put plainly: Test A preemergence. The note with it: Amaranthus retroflexus, pre-emergence, 240 h; for pest or weed control at 125 g/ha: 125 g ai/ha, preemergence, 0 to 100 scale where 0 is no effect and 100 is complete control, read-out: Pigweed plant response rating; for pest or weed control at 500 g/ha: 500 g ai/ha, Preemergence, visual injury vs untreated controls after approximately 10 d, read-out: Pigweed plant response rating (0 to 100 scale where 0 is no effect and 100 is complete control).

The test system of assay [14] is barnyardgrass (Echinochloa crus-galli). Put plainly: Test A preemergence. The note with it: Echinochloa crus-galli, pre-emergence, 240 h; for pest or weed control at 125 g/ha: 125 g ai/ha, preemergence, 0 to 100 scale where 0 is no effect and 100 is complete control, read-out: Barnyardgrass plant response rating; for pest or weed control at 500 g/ha: 500 g ai/ha, Preemergence, visual injury vs untreated controls after approximately 10 d, read-out: Barnyardgrass plant response rating (0 to 100 scale where 0 is no effect and 100 is complete control). The gist of the method: as §1

Setting [15] is: postemergence, visual injury rating after approximately 10 d, read-out: Foxtail, Giant plant response rating (0 to 100 scale, 0 no effect, 100 complete control).
Where [16] appears, read: postemergence, visual injury rating after approximately 10 d, read-out: Galium plant response rating (0 to 100 scale, 0 no effect, 100 complete control).
Where [17] appears, read: postemergence, visual injury rating after approximately 10 d, read-out: Kochia plant response rating (0 to 100 scale, 0 no effect, 100 complete control).
Where [18] appears, read: postemergence, visual injury rating after approximately 10 d, read-out: Ragweed plant response rating (0 to 100 scale, 0 no effect, 100 complete control).
Setting [19] is: postemergence, visual injury rating after approximately 10 d, read-out: Ryegrass, Italian plant response rating (0 to 100 scale, 0 no effect, 100 complete control).
Where [20] appears, read: postemergence, visual injury rating after approximately 10 d, read-out: Pigweed plant response rating (0 to 100 scale, 0 no effect, 100 complete control).
The mark [21] stands for this setting: postemergence, visual injury rating after approximately 10 d, read-out: Barnyardgrass plant response rating (0 to 100 scale, 0 no effect, 100 complete control).
Setting [22] is: postemergence, visual injury rating after approximately 10 d, read-out: Wheat plant response rating (0 to 100 scale, 0 no effect, 100 complete control).

Structures are written as SMILES. Read-outs that look alike come from different tables or passages of the source.

Consider `COc1ccc([C@H]2CN(C)C(=O)[C@@H]2C(=O)Nc2ccccc2SC)cc1OC` [Compound 854], for which the pest or weed control at 125 g/ha was 50% in assay [1] (setting [15]); 0% in [2] (setting [16]); 0% with Kochia (Kochia scoparia) [3] (setting [17]); 0% in assay [4] (setting [18]); 0% in assay [5] (setting [19]); 0% in assay [6] (setting [20]). The pest or weed control at 125 g/ha was determined as 0% in [7] (setting [21]); 50% in [9]; 0% in the assay with Kochia (Kochia scoparia) [10]; 0% in [11]; 0% in [12]; 0% in assay [13]. Besides, in assay [14], the pest or weed control at 125 g/ha turned out to be 0%. Moreover, the plant injury at 125 g/ha (with corn (Zea mays); in [8] (setting [22])) was 0% in each case. For the same compound, the pest or weed control at 500 g/ha in assay [9] was found to be 80%; with Kochia (Kochia scoparia) [10] it was 0%; in assay [11], 0%; in [12], 0%; in [13] it was 0%; in [14], 80%.

For `CN1CC[C@H](c2cccc(Cl)c2)[C@@H](C(=O)Nc2cccc(F)c2F)C1=O` [Compound 921], the pest or weed control at 125 g/ha in [1] (Postemergence, visual injury after approximately 10 d, 0 to 100 scale where 0 is no effect and 100 is complete control, read-out: Plant response rating, Foxtail, Giant) came out at 90%; in assay [2] (Postemergence, visual injury after approximately 10 d, 0 to 100 scale where 0 is no effect and 100 is complete control, read-out: Plant response rating, Galium) it was 0%; with Kochia (Kochia scoparia) [3] (Postemergence, visual injury after approximately 10 d, 0 to 100 scale where 0 is no effect and 100 is complete control, read-out: Plant response rating, Kochia) it was 0%; in [4] (Postemergence, visual injury after approximately 10 d, 0 to 100 scale where 0 is no effect and 100 is complete control, read-out: Plant response rating, Ragweed), 0%; in [5] (Postemergence, visual injury after approximately 10 d, 0 to 100 scale where 0 is no effect and 100 is complete control, read-out: Plant response rating, Ryegrass, Italian), 20%; in assay [6] (Postemergence, visual injury after approximately 10 d, 0 to 100 scale where 0 is no effect and 100 is complete control, read-out: Plant response rating, Pigweed), 0%. Further, the pest or weed control at 125 g/ha was 90% in assay [7] (Postemergence, visual injury after approximately 10 d, 0 to 100 scale where 0 is no effect and 100 is complete control, read-out: Plant response rating, Barnyardgrass); 90% in assay [9]; 0% in the assay with Kochia (Kochia scoparia) [10]; 0% in assay [11]; 50% in assay [12]; 0% in assay [13]. Moreover, the pest or weed control at 125 g/ha in assay [14] is 90%. In the assay on corn (Zea mays) (Postemergence, visual injury after approximately 10 d, 0 to 100 scale where 0 is no effect and 100 is complete control), this compound registered a Corn plant response rating (crop injury, 0 = no effect, 100 = complete kill) at 125 g/ha of 20%. Besides, in [8] (Postemergence, visual injury after approximately 10 d, 0 to 100 scale where 0 is no effect and 100 is complete control, read-out: Plant response rating, Wheat), the plant injury at 125 g/ha was 20%. Moreover, the pest or weed control at 500 g/ha worked out at 100% in [9]; 30% with Kochia (Kochia scoparia) [10]; 0% in assay [11]; 60% in [12]; 0% in [13]; 90% in [14].

On to `CN1C[C@H](c2cc(F)cc(F)c2)[C@@H](C(=O)Nc2ccccc2[S@+](C)[O-])C1=O` [Compound 871], for which the pest or weed control at 125 g/ha in [1] (setting [15]) turned out to be 40%; in [2] (setting [16]), 50%; with Kochia (Kochia scoparia) [3] (setting [17]) it was 0%; in assay [4] (setting [18]) it was 0%; in [5] (setting [19]), 20%; in assay [6] (setting [20]) it was 0%. Moreover, the pest or weed control at 125 g/ha in assay [7] (setting [21]) is 50%; in assay [9], 80%; in the assay on Kochia (Kochia scoparia) [10], 80%; in [11], 0%; in assay [12], 0%; in [13] it was 0%. In addition, in [14], the pest or weed control at 125 g/ha is 20%. Moreover, the plant injury at 125 g/ha (in the assay with corn (Zea mays); in assay [8] (setting [22])) was 20% each time. The pest or weed control at 500 g/ha in assay [9] came to 80%; in the assay on Kochia (Kochia scoparia) [10] it was 80%; in assay [11], 20%; in assay [12], 30%; in assay [13] it was 30%; in [14] it was 90%.
